Test system: mouse lymphoma lines (BCL1 and Myc/Bc12)
Assay: qRT-PCR of TNF family cytokines in mouse lymphoma lines
Type: cell-based
Details: solHVEM 10 μg/ml; BCL1 and Myc/Bcl2 lines; 24 hrs
Description: FIG. 5A-I. Abnormal activation of the lymphoid stroma in B-cell lymphomas. FIG. 5A, Immunohistofluorescence staining for the FDC marker CD21/35 and the FRC marker Collagen 1 on control lymphomas (vector) and HVEM knockdown lymphomas (shHVEM) (n=3 for each, scale bars=100 μm); FIG. 5B and FIG. 5C, Systematic quantification of CD21/35 (left) and collagen I (right) staining in control (Vector) and HVEM deficient (shHVEM) lymphomas based on 12 areas in the T-cell zone and 30 areas in the B-cell zone per mice (cumulative number for 3 mice), respectively; ** p<0.01; *** p<0.001 by parametric t-test; FIG. 5D and FIG. 5E, CXCL13 (FIG. 5D) and CCL19 (FIG. 5E) expression by qRT-PCR on control (vector) and HVEM knockdown (shHVEM) lymphomas (mean of four replicates, error bars indicate standard deviation, * p<0.01); FIG. 5F, qRT-PCR measurement of the LTa, LTb, and TNFa mRNA expression in B cells isolated from the spleens of vector and shHVEM mice (n=3); FIG. 5G-I, qRT-PCR measurement of TNFa (FIG. 5G), LTa (FIG. 5H), and LTb (FIG. 5I) in B cell line BCL1 after 24 hrs of treatment with solHVEM (10 μg/ml).
FIG. 12A-F. Analysis of the lymphoid stroma in B cell lymphomas. FIG. 12A, Immunohistofluorescence staining of CD20pos B cells, Transglutaminasepos FRCs, and CD21Lpos FDCs in reactive lymph nodes and two separate human follicular lymphoma tissue specimens; FIG. 12B, Flowchart of the image processing for FRC density (Collagen I); briefly, images were thresholded and transformed to binaries images, then a watershed algorithm was applied and number of polygons evaluated and analyzed by ImageJ software; FIG. 12C, Number of polygons indicates FRC density in control lymphomas (vector) and HVEM knockdown lymphomas showing no difference in FRC contribution. 40 areas were selected in the T cell zone and analyzed per mice (n=3 per each group); FIG. 12D-F, qRT-PCR measurement of TNFa (FIG. 12D), LTa (FIG. 12E), and LTb (FIG. 12F) in mouse B-cell line EuMyc-Bc12. […]

## solHVEM: Leu39-Val202 soluble HVEM ectodomain polypeptide of SEQ ID NO. 8
  expression of LTa: readily decreased
  expression of LTb: readily decreased
  expression of TNFa: did not reduce
